{"source": "patent US10092568B2", "about": "“CBP/Catenin antagonists for enhancing asymmetric division of somatic stem cells” (University of Southern California, priority 2010, dated 2018)", "key": {"[1]": {"tested_on": "imatinib resistant (IR) CML cells / leukemia stem cells", "assay": "Imatinib resistant CML, in vitro and NOD/SCID/IL2rγ−/− mouse model of engrafted human CML", "format": "in vivo", "source_text": "Chronic myelogenous leukemia (CML). Despite the stunning clinical success achieved to date in chronic phase CML patients treated with the BCR-ABL antagonist Gleevec/Imatinib (IM), responses in advanced phase patients are often short-lived, and patients invariably undergo disease progression. Furthermore, resistance to IM develops in 2% to 4% of patients annually and IM dose escalation is generally not sufficient to control the disease. Several mechanisms that contribute to tyrosine kinase inhibitor (TKI) resistance have been proposed including the insensitivity of quiescent CML stem cells to TKIs due to low expression of BCR-ABL and the emergence of drug resistant leukemic clones associated with increased nuclear catenin levels, a hallmark of increased Wnt/catenin transcription. […] Epigenetic silencing of negative regulators of the Wnt signaling cascade is also frequently associated with leukemias, including CML. […] The mice treated with one course (28 days from day 13-41 after leukemia engraftment) of CBP/catenin antagonist plus bcr-abl antagonist are essentially cured of leukemia and live as long (approximately 2 years) as their littermates that were never engrafted with leukemia."}, "[2]": {"tested_on": "fibroblasts from IPF patients", "assay": "S100A4/FSP-1 expression in fibroblasts from IPF patients in vitro", "format": "cell-based", "source_text": "(§1) Fibrosis. Idiopathic pulmonary fibrosis (IPF)/usual interstitial pneumonia (UIP), the most common of the idiopathic interstitial pneumonias, is a devastating, progressive disorder characterized by excessive fibroblast proliferation and extracellular matrix remodeling leading to lung destruction. There is currently no effective therapy for this uniformly fatal disease. An emerging paradigm proposes a central role for alveolar epithelial cell injury and dysregulated repair in the pathogenesis of IPF. Injury to the epithelium is thought to initiate a cascade of fibroblast activation and matrix deposition, which in predisposed hosts fails to resolve as it would in the course of normal wound repair. Epithelial cells undergo excessive apoptosis, whereas fibroblasts are less amenable to apoptosis and manifest increased survival. The well-characterized model of bleomycin-induced lung injury has been extensively used to investigate potential pathways involved in the pathogenesis of pulmonary fibrosis and to explore therapeutic approaches."}, "[3]": {"tested_on": "rat type II lung epithelial cells", "assay": "TGF-β1-induced EMT genes in lung epithelial cells", "format": "cell-based", "source_text": "as §1"}, "[4]": {"tested_on": "PC-12 cells with mutant PS-1 (L286V)", "assay": "Neuronal differentiation of PC-12 cells with FAD mutant PS-1 (L286V)", "format": "cell-based", "source_text": "However, the effects of PS-1 mutations on the stability of beta-catenin, TCF/beta-catenin signaling, and thereby its potential role in AD remain controversial. Applicant has shown that introduction of a FAD mutant PS-1 (L286V) into PC-12 cells causes increased TCF/beta-catenin signaling, leading to the inhibition of neurite outgrowth. […] In the CNS, EpB2 expression is associated with axonal guidance (16). […] In initial in vivo studies, applicant treated penta-transgenic mice that over express mutant APP (695) (Swedish (K670N, M671L), Florida (I716V) and London (V717I)) and PS-1 (M146L and L286V) mutations with ICG-001 for 2 months (months 2-4). These mice normally develop massive cerebral deposition of Aβ starting at 6 weeks of age."}}, "data": [{"smiles": "O=C1[C@H](Cc2ccc(O)cc2)N2C(=O)CCN(C(=O)NCc3ccccc3)[C@H]2CN1Cc1cccc2ccccc12", "note": "[ICG-001]", "values": [{"measurement": "drug resistant leukemia stem cells", "setting": "[1]; NOD/SCID/IL2rγ−/− mice engrafted with human CML", "result": "can be eliminated"}, {"measurement": "differentiation of the IR cells", "setting": "[1]; in vitro and in vivo", "result": "induces the differentiation"}, {"measurement": "effects on normal endogenous hematopoiesis", "setting": "[1]; mouse, in vivo", "result": "without deleterious effects"}, {"measurement": "expression of S100A4/FSP-1", "setting": "[2]", "result": "significantly decreased"}, {"measurement": "TGF-β1-induced up-regulation of α-SMA and type I collagen", "setting": "[3]", "result": "prevents"}, {"measurement": "EpB2 expression", "setting": "[4]", "result": "again increased"}, {"measurement": "neuronal differentiation and neurite outgrowth", "setting": "[4]", "result": "rescues the defects"}, {"measurement": "expression of GAP43", "setting": "[4]; NGF-induced differentiation", "result": "dramatically increased"}]}]}
